The subject of data set [1] is Bacillus anthracis strain Vollum 1 b. The experiment in a line: microbe, parasite or virus in culture. The format is cell-based.
Data set [2] has as its target M. tuberculosis RNA polymerase core enzyme, M. tuberculosis σ^A (Mycobacterium tuberculosis, UniProt P9WGY7+P9WGY9). The experiment in a line: Fluorescence-detected inhibition of Mycobacterium tuberculosis RNA polymerase. Format: biochemical. As for the experimental part:
(§1) Fluorescence-detected RNA polymerase assays with E. coli RNA polymerase were performed by a modification of the procedure of Kuhlman et al., 2004 [Kuhlman, P., Duff, H. & Galant, A. (2004) A fluorescence-based assay for multisubunit DNA-dependent RNA polymerases. Anal. Biochem. 324, 183-190]. Reaction mixtures contained (20 μl): 0-100 nM test compound, 75 nM E. coli RNA polymerase σ^70 holoenzyme, 20 nM 384 bp DNA fragment containing the bacteriophage T4 N25 promoter, 100 μM ATP, 100 μM GTP, 100 μM UTP, 100 μM CTP, 50 mM Tris-HCl, pH 8.0, 100 mM KCl, 10 mM MgCl2, 1 mM DTT, 10 μg/ml bovine serum albumin, and 5.5% glycerol. Reaction components other than DNA and NTPs were pre-incubated for 10 min at 37° C. Reactions were carried out by addition of DNA and incubation for 5 min at 37° C., followed by addition of NTPs and incubation for 60 min at 37° C. DNA was removed by addition of 1 μl 5 mM CaCl2 and 2 U DNaseI (Ambion, Inc.), followed by incubation for 90 min at 37° C. RNA was quantified by addition of 100 μl RiboGreen RNA Quantitation Reagent (Invitrogen, Inc.; 1:500 dilution in Tris-HCl, pH 8.0, 1 mM EDTA), followed by incubation for 10 min at 25° C., followed by measurement of fluorescence intensity [excitation wavelength=485 nm and emission wavelength=535 nm; QuantaMaster QM1 spectrofluorometer (PTI, Inc.)]. IC50 is defined as the concentration of inhibitor resulting in 50% inhibition of RNA polymerase activity.
Fluorescence-detected RNA polymerase assays with M. tuberculosis RNA polymerase were performed as in Example 17.1, using reaction mixtures containing (20 μl): 0-100 nM test compound, 75 nM M. tuberculosis RNA polymerase core enzyme, 300 nM M. tuberculosis σ^A, 20 nM 384 bp DNA fragment containing the bacteriophage […] N25 promoter, 100 μM ATP, […], 100 μM UTP, 100 μM CTP, 40 mM Tris-HCl, pH 8.0, 80 mM NaCl, 5 mM MgCl2, 2.5 mM DTT, and 12.7% glycerol. IC50 is defined as the concentration of inhibitor resulting in 50% inhibition of RNA polymerase activity.

The test system of data set [3] is Brucella melitensis strain 16M. The experiment in a line: microbe, parasite or virus in culture. The format is cell-based.
In data set [4] the test system is Escherichia coli D212f2tolC. As to conditions: MIC in presence of 10% mouse serum divided by MIC in absence of 10% mouse serum.
In data set [5] the test system is Enterococcus faecalis ATCC strain 19433. The experiment in a line: MIC, spiral gradient endpoint assay, E. faecalis. As to conditions: for MIC: Enterococcus faecalis, ATCC19433, 16 h, read-out: MIC E. faecalis 19433.
The target of data set [6] is S. aureus RNA polymerase core enzyme, S. aureus σ^A (Staphylococcus aureus, UniProt P47768+Q2G0N5). The experiment in a line: Fluorescence-detected inhibition of Staphylococcus aureus RNA polymerase. Format: biochemical. On the procedure:
as §1
Fluorescence-detected RNA polymerase assays with S. aureus RNA polymerase were performed as in Example 17.1, using reaction mixtures containing (20 μl): 0-100 nM test compound, 75 nM S. aureus RNA polymerase core enzyme, 300 nM S. aureus σ^A, 20 nM 384 bp DNA fragment containing the bacteriophage T4 N25 promoter, 100 μM ATP, 100 μM GTP, 100 μM UTP, 100 μM CTP, 40 mM Tris-HCl, pH 8.0, 80 mM NaCl, 5 mM MgCl2, 2.5 mM DTT, and 12.7% glycerol. IC50 is defined as the concentration of inhibitor resulting in 50% inhibition of RNA polymerase activity.

In data set [7] the test system is Francisella tularensis strain SCHU4. The experiment in a line: microbe, parasite or virus in culture. The format is cell-based.
Data set [8] concerns the target E. coli RNA polymerase σ^70 holoenzyme (Escherichia coli, UniProt P0A8T7+P0A8V2). The experiment in a line: Fluorescence-detected inhibition of Escherichia coli RNA polymerase. Format: biochemical. As to conditions: read-out: IC50 E. coli RNAP. As for the experimental part:
as §1

In data set [9] the test system is Burkholderia pseudomallei strain Human/Blood/OH/US/1994. The experiment in a line: microbe, parasite or virus in culture. The format is cell-based.
Data set [10] has as its system Burkholderia mallei strain CHN7. The experiment in a line: microbe, parasite or virus in culture. Format: cell-based.
Assay in data set [11]: not given
This is another data set of the same source.

Data set [12] is described as follows: physchem. As to conditions: pH 7.4.
Data set [13] is described as follows: Metabolic stability in the presence of human liver microsomes. In general terms: Microsomes from liver hold many membrane-bound enzymes, among them those of drug oxidation.
The mark [14] stands for this setting: read-out: IC50 M. tuberculosis RNAP.

Values after ≈ are worked out from the molar mass of the structure shown. Where two headings read alike, the source gives them in different places.

In general, IC50 refers to the concentration needed to halve the response being measured. One may read the logD as lipophilicity at a set pH, counting ionised and neutral species. Low readings indicate lower lipophilicity, high ones higher lipophilicity. By half-life is commonly meant how long it takes for the measured level to halve.

S. aureus RNA polymerase core enzyme, S. aureus σ^A, sequence (Q2FW32 whole entry): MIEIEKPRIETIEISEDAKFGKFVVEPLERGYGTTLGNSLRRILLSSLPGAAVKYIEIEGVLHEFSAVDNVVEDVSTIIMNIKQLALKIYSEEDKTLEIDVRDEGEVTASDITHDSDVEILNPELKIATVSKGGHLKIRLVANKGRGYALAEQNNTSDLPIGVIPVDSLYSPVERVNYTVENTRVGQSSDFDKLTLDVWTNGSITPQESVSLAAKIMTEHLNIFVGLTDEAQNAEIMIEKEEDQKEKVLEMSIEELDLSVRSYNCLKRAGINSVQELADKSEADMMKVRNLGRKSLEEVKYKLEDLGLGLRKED
S. aureus RNA polymerase core enzyme, S. aureus σ^A, sequence (P0A0J0 whole entry, further chain): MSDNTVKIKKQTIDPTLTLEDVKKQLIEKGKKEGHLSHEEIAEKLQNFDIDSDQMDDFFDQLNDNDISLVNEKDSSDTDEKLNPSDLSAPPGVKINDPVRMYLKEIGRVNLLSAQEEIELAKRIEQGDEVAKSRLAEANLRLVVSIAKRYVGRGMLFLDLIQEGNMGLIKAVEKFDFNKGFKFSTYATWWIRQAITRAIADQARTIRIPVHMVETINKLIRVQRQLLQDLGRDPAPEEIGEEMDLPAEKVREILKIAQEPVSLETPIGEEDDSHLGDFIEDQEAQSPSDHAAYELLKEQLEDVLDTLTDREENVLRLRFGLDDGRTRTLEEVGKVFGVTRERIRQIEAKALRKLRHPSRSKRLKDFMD
S. aureus RNA polymerase core enzyme, S. aureus σ^A, sequence (P47768 whole entry): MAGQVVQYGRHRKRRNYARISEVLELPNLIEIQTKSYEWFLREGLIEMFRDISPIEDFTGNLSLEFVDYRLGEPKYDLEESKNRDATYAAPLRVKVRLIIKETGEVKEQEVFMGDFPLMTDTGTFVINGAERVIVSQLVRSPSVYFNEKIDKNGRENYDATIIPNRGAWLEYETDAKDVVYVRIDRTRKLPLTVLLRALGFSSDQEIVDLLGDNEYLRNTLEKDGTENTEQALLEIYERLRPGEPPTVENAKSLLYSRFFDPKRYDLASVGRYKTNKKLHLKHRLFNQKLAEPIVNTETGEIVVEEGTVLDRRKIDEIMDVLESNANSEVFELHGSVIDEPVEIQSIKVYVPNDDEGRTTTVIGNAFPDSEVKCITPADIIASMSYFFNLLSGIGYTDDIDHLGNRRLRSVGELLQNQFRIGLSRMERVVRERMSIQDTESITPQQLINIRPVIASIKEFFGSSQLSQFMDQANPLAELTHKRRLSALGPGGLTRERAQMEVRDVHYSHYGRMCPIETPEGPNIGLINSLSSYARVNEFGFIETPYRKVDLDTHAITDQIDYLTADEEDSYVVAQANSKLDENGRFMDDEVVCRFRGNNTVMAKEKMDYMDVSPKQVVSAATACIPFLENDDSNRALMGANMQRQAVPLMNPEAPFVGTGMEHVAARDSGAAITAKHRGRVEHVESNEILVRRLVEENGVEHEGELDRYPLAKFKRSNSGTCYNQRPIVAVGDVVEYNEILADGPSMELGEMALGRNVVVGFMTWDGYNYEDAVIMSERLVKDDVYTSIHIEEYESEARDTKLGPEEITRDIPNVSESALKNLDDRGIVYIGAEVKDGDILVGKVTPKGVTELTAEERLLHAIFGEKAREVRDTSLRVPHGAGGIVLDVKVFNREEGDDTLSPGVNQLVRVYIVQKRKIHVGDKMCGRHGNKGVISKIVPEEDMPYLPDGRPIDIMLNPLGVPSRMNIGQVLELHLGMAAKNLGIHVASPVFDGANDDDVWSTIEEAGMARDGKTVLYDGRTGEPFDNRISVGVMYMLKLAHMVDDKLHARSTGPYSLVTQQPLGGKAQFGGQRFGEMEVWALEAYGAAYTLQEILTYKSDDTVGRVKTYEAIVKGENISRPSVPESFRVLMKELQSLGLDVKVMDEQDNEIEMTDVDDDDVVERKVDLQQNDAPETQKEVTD
S. aureus RNA polymerase core enzyme, S. aureus σ^A, sequence (Q2G0N5 whole entry): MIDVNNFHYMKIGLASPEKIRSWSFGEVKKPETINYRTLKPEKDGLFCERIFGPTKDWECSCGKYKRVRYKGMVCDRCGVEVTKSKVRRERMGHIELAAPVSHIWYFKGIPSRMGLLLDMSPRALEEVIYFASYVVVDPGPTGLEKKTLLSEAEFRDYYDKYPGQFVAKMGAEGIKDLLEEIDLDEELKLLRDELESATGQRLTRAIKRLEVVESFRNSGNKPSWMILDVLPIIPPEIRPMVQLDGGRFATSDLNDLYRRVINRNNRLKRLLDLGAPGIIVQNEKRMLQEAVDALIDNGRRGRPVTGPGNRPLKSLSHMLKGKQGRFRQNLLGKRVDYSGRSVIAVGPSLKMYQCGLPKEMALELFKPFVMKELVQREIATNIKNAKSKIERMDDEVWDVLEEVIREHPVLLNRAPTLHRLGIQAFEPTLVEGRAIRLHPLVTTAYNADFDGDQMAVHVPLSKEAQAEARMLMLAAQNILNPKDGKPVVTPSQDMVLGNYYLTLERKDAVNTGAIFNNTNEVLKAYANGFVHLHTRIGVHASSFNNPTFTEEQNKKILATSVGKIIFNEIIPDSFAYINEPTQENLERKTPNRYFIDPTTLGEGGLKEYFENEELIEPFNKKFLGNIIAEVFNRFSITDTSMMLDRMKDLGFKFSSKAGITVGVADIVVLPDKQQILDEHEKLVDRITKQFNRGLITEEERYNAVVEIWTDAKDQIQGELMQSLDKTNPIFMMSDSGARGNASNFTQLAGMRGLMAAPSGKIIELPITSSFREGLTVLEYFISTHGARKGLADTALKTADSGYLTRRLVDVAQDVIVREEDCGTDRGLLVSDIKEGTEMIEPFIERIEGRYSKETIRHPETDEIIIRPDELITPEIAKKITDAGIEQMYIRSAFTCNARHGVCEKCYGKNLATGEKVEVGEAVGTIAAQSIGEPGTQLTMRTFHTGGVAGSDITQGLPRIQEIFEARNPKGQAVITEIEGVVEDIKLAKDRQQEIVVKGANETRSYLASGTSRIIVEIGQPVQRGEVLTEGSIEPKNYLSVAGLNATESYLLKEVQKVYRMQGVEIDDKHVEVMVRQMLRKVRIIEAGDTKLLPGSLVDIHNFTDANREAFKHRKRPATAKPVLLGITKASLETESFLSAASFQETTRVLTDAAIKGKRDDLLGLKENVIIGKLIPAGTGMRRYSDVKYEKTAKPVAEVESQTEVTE

On to `CCCC/C(C)=C/C=C(\C)C(=O)c1c(O)cc([C@H](C)CC/C=C/NC(=O)OC)oc1=O` (racemic) [Myx B, (±)myxopyronin B, reference compound], for which the “logD (pH 7.4)” value is 1.8. Moreover, the “MIC B. anthracis Vollum1b” value in data set [1] (broth microdilution) stood at 6 µg/mL (≈ 13.9 µM). Besides, the IC50 in data set [2] (setting [14]) amounted to 100 nM. Also, the “MIC B. melitensis 16M” value in data set [3] (broth microdilution) is 3 µg/mL (≈ 6.95 µM). For the same compound, in data set [4], the serum shift was determined as 16. Further, in [5] (16 h at 37° C., Mueller-Hinton II agar), the “MIC E. faecalis 19433” value was determined as 20 µg/mL (≈ 46.3 µM). In addition, the IC50 in [6] (read-out: IC50 S. aureus RNAP) worked out at 70 nM. Also, the “MIC F. tularensis SCHU4” value in data set [7] (broth microdilution) is 2 µg/mL (≈ 4.63 µM). Moreover, in data set [8], the half-inhibitory concentration (IC50) amounted to 10 nM. Besides, the “MIC B. pseudomallei Human/Blood/OH/US/1994” value in [9] (broth microdilution) turned out to be 30 µg/mL (≈ 69.5 µM). In [10] (broth microdilution), the “MIC B. mallei CHN7” value came out at 6 µg/mL (≈ 13.9 µM). Also, the “half-life human liver microsomes” value in [11] is recorded as 3 min.

`COC(=O)N/C=C/CCC(C)c1cc(O)c(C(=O)/C(C)=C/C=C(\C)CCCC(F)(F)F)c(=O)o1` (stereo not drawn) [compound 1, Methyl ((E)-5-(4-hydroxy-2-oxo-3-((2E,4E)-9,9,9-trifluoro-2,5-dimethylnona-2,4-dienoyl)-2H-pyran-6-yl)hex-1-en-1-yl)carbamate]: the MIC turned out to be 6 µg/mL (≈ 12.4 µM) in [1] (Bacillus anthracis, VOLLUM1B, read-out: MIC B. anthracis Vollum1b); 6 µg/mL (≈ 12.4 µM) in data set [3] (Brucella melitensis, 16M, read-out: MIC B. melitensis 16M); 9 µg/mL (≈ 18.5 µM) in data set [5]; 3 µg/mL (≈ 6.18 µM) in [7] (Francisella tularensis, SCHU4, read-out: MIC F. tularensis SCHU4); 50 µg/mL (≈ 103 µM) in data set [9] (Burkholderia pseudomallei, read-out: MIC B. pseudomallei Human/Blood/OH/US/1994); 10 µg/mL (≈ 20.6 µM) in data set [10] (Burkholderia mallei, CHN7, read-out: MIC B. mallei CHN7). Besides, the IC50 was found to be 30 nM in [2] (setting [14]), 10 nM in data set [6] (read-out: IC50 S. aureus RNAP) and 4 nM in [8]. For the same compound, the logD in data set [12] was 1.4. Besides, in data set [4], the serum shift is recorded as 8. The “higher metabolic stability than (±)myxopyronin B” value in [13] (human liver microsomes, relative to Myx B) was in the range of 4 to 5 times. In addition, the half-life in [13] (human, liver microsomes) was determined as 14 min.

Turning to `COC(=O)N/C=C/CCC(C)c1cc(O)c(C(=O)/C(C)=C/C=C(\C)CCCCC(F)(F)F)c(=O)o1` (stereo not drawn) [compound 3, Methyl ((E)-5-(4-hydroxy-2-oxo-3-((2E,4E)-10,10,10-trifluoro-2,5-dimethyldeca-2,4-dienoyl)-2H-pyran-6-yl)hex-1-en-1-yl)carbamate], the IC50 was determined as 200 nM in data set [2], 40 nM in [6] and 10 nM in data set [8]. For the same compound, the serum shift in [4] came out at 16. Also, the MIC in [5] was 10 µg/mL (≈ 20 µM).

For the compound `COC(=O)N/C=C/CCC(C)c1cc(O)c(C(=O)/C(C)=C/C=C(\C)CCC(F)(F)F)c(=O)o1` (stereo not drawn) [compound 5], the IC50 in [2] (setting [14]) was 100 nM; in data set [6] (read-out: IC50 S. aureus RNAP) it was 100 nM; in data set [8], 4 nM. The serum shift in [4] is 8. The MIC in data set [5] is more than 40 µg/mL.

Turning to `COC(=O)N/C=C/CCCc1cc(O)c(C(=O)/C(C)=C/C=C(\C)CCCC(F)(F)F)c(=O)o1` [compound 9, Methyl ((E)-5-(4-hydroxy-2-oxo-3-((2E,4E)-9,9,9-trifluoro-2,5-dimethylnona-2,4-dienoyl)-2H-pyran-6-yl)pent-1-en-1-yl)carbamate], the figures for the half-maximal inhibitory concentration (IC50) in [2] (setting [14]) and in [8] were 60 nM and 5 nM, respectively. The serum shift in [4] was 8. Also, the MIC in data set [5] is 10 µg/mL (≈ 21.2 µM).

As for `COC(=O)N/C=C/CCCc1cc(O)c(C(=O)/C(C)=C/C=C(\C)CCC(F)(F)F)c(=O)o1` [compound 11, Methyl ((E)-5-(4-hydroxy-2-oxo-3-((2E,4E)-8,8,8-trifluoro-2,5-dimethylocta-2,4-dienoyl)-2H-pyran-6-yl)pent-1-en-1-yl)carbamate], in [4], the serum shift was determined as 4. Moreover, in data set [5], the MIC is more than 40 µg/mL. In addition, the half-inhibitory concentration (IC50) in data set [8] was 20 nM.

(Values after patent US9187446B2, “Antibacterial agents: sidechainfluorinated myxopyronin derivatives” (RUTGERS, THE STATE UNIVERSITY OF NEW JERSEY, priority 2012, dated 2015).)
